Results: patent publication US20200069592A1, “HSP90 INHIBITOR ORAL FORMULATIONS AND RELATED METHODS” (Samus Therapeutics, Inc., priority 2017, published 2020)
Marks after values point to notes of the source that are not given here.

Experiments:
[1] = tested on: MDA-MB-468 triple negative breast tumor xenograft; assay: MDA-MB-468 triple negative breast tumor xenograft model, tumor volume (IP vs PO); format: in vivo, Nu/Nu (athymic nude) female mice; conditions: for Mean tumor volume as % of mean tumor volume in control mice receiving vehicle alone / Mean tumor volume as % of mean tumor volume in mice receiving 75 mg/kg orally or intraperitoneally: Day 89; for Mean tumor volume on Day 117 relative to the same mice at Day 1: treatment stopped Day 103
Description: Mice were identified with a transponder.
To form the xenografts, 1×10^7 MDA-MB-468 cells suspended in 0.1 ml of 50% Matrigel/50% Media (1:1) were injected into the mammary fat pad of each mouse. Treatment was initiated when the mean tumor size reached 100-150 mm^3 and the day of treatment initiation was designated as Day 1. Subcutaneous tumor size was calculated as tumor volume (mm^3)=(a×b^2/2), where ‘b’ is the smallest diameter and ‘a’ is the largest diameter.
Oral gavage was used for oral administration.

[2] = female, Nu/Nu (NU-Foxn1^nu) athymic nude, mouse, in vivo, po, 150 mg/kg, 14 days
Description: (§1) The animals used in this study were Nu/Nu (NU-Foxn1^nu) (athymic nude) physiologically normal female mice supplied by Charles River. At the time of inoculation, the age of the animals was 5-8 weeks. Sixty total animals were used and animals were not replaced during the course of this study. Mice were identified with a transponder. The animals were housed in individually ventilated microisolator cages and allowed to acclimate for at least 5-7 days. The animals were maintained under pathogen-free conditions and given Teklad Global Diet® 2920x irradiated pellets for food and autoclaved water ad libitum.
(§2) Compound ldihydrochloride (2HCl) was provided as a crystalline powder and stored at 2-8° C. protected from light. The administered form of Compound 1 2HCl was a clear solution. For intraperitoneal administration, Compound 1 2HCl was reconstituted in PBS. For oral administration, Compound 1 2HCl was reconstituted in 0.5% Methylcellulose (MC) in water. The salt: base ratio was 1.14:1 (i.e., to obtain 100 mg of Compound 1 free base, 114 mg of Compound 1 dihydrochloride salt was weighed out). Dose levels of Compound 1 were based on the free base, not the salt. Compound 1 2HCl in administered form was prepared fresh immediately prior to use.
(§3) Animals were randomized using random equilibration of tumor volume into one of six study groups, as shown in Table 22 (Groups 1-6), with 10 animals in each group.
(§4) Group 1 was administered vehicle control alone (without Compound 1 2HCl) intraperitoneally (IP) three times weekly (TIW) until the end of the study. PBS was used as the vehicle control and was administered at a volume of 10 mL/kg.
(§5) Groups 2-6 were administered Compound 1 2HCl at a volume of 10 mL/kg three times weekly (TIW) until the end of the study with the doses as described next.
(§6) Group 2 received 75 mg/kg Compound 1 2HCl via intraperitoneal administration.
(§7) Group 3 received 75 mg/kg Compound 1 2HCl via oral administration (PO). Group 4 received 100 mg/kg Compound 1 2HCl via oral administration. Group 5 received 125 mg/kg Compound 1 2HCl via oral administration. Group 6 received 150 mg/kg Compound 1 2HCl via oral administration. […]
(§8) Tumor volume and body weight were measured twice weekly with gross observations daily. […]
(§9) For data analysis, simple statistics (ANOVA) will be conducted on tumor volumes to verify significance of treatment groups relative to control. Growth curves will be constructed and percent tumor growth inhibition (TGI) will be calculated as a means to assess the effect of the single-agent therapy regimens. […]
(§10) The Materials and Methods used were the same as discussed above for Example 3, except for the lengths of treatment for Groups 1-4. […] Tumor growth and body weight were measured twice weekly with gross observations daily for Groups 1-5 until Day 117.

[3] = Plasma pharmacokinetics after single oral dose in ORA-Plus or SyrSpend SF (Example 6), LC-MS/MS; format: in vivo, Sprague Dawley rats; conditions: for % AUC0-last test vs reference: rats, ratio of group averages; for AUC(0-t) / Cmax / Tmax / AUC(0-inf) / half-life: female, Sprague Dawley, rat, plasma, po
[4] = Body weight change / dose tolerance in the MDA-MB-468 xenograft study
Description: as §1, §2, §3, §4, §5, §6, §7, §8, §9, §10

in vivo = conditions: female, Nu/Nu (NU-Foxn1^nu) athymic nude, mouse, ip
Description: as §1, §2, §3, §4, §5, §6, §7, §8, §9, §10

[5] = Tolerability (body weight, toxicity, maximum tolerated dose) in the Example 5 rat study; format: in vivo; conditions: female, Sprague Dawley, rat, in vivo, iv
Description: Ninety-four total animals were observed thereafter. The parenteral administration is performed by tail vein injection.

[6] = G5: 2HCl, 24 mg/kg single oral dose, ORA-plus, rat plasma, n = 4
[7] = G6: 2HCl, 48 mg/kg single oral dose, ORA-plus, rat plasma
[8] = G12: 2HCl, 24 mg/kg single oral dose, SyrSpend, rat plasma, n = 1
[9] = G13: 2HCl, 48 mg/kg single oral dose, SyrSpend, n = 2
[10] = G14: 2HCl, 60 mg/kg single oral dose, SyrSpend, n = 3
[11] = 24 mg/kg, G5: 2HCl, 24 mg/kg single oral dose, ORA-plus, rat plasma
[12] = 24 mg/kg, G5: 2HCl, 24 mg/kg single oral dose, ORA-plus, rat plasma, n = 4
[13] = 24 mg/kg, G12: 2HCl, 24 mg/kg single oral dose, SyrSpend, rat plasma
[14] = 24 mg/kg, G12: 2HCl, 24 mg/kg single oral dose, SyrSpend, rat plasma, n = 1
[15] = 48 mg/kg, G6: 2HCl, 48 mg/kg single oral dose, ORA-plus, rat plasma
[16] = 48 mg/kg, G13: 2HCl, 48 mg/kg single oral dose, SyrSpend
[17] = 48 mg/kg, G13: 2HCl, 48 mg/kg single oral dose, SyrSpend, n = 2
[18] = 60 mg/kg, G14: 2HCl, 60 mg/kg single oral dose, SyrSpend
[19] = 60 mg/kg, G14: 2HCl, 60 mg/kg single oral dose, SyrSpend, n = 3

CC(C)NCCCn1c(Sc2cc3c(cc2I)OCO3)nc2c(N)ncnc21 [Compound 1 2HCl]
Effect on tumor growth (tumor volume) ([1]; 75 mg/kg IP, TIW, Day 36): tumor inhibition was observed
Mean tumor volume as % of mean tumor volume in control mice receiving vehicle alone ([1]; 75 mg/kg IP, TIW): about 20%
Mean tumor volume on Day 117 relative to the same mice at Day 1 ([1]; 75 mg/kg IP): 1.7-1.9 times
Effect on tumor growth (tumor volume) ([1]; 75 mg/kg PO vs same dose IP, first 14 days of treatment): inhibited tumor growth slightly more than intraperitoneal administration
Effect on tumor growth (tumor volume) ([1]; 75 mg/kg PO, TIW, Day 36): tumor inhibition was observed
Mean tumor volume as % of mean tumor volume in control mice receiving vehicle alone ([1]; 75 mg/kg PO, TIW): about 20%
Mean tumor volume on Day 117 relative to the same mice at Day 1 ([1]; 75 mg/kg PO): 1.7-1.9 times
Effect on tumor growth (tumor volume) ([1]; 100 mg/kg PO, TIW, 89 days): tumor regressive
Effect on tumor growth (tumor volume) ([1]; 100 mg/kg PO, TIW, Day 36): Tumor inhibition was also observed
Mean tumor volume as % of mean tumor volume in mice receiving 75 mg/kg orally or intraperitoneally ([1]; 100 mg/kg PO, TIW): about 50%
Mean tumor volume as % of mean tumor volume in the same mice at day 1 ([1]; 100 mg/kg PO, after treatment stopped Day 103, study to Day 117): about 63%
Effect on tumor growth (tumor volume) ([1]; 125 mg/kg PO, TIW (dosing holiday Day 29), 36 day period): caused tumor regression
Mean tumor volume as % of mean tumor volume in mice receiving 75 mg/kg orally or intraperitoneally ([1]; 125 mg/kg PO, TIW with dosing holidays, dosing ended Day 78): about 50%
Effect on tumor growth (tumor volume) ([1]; 125 mg/kg PO, TIW with dosing holidays, 89 days): tumor regressive
Mean tumor volume as % of mean tumor volume in the same mice at day 1 ([1]; 125 mg/kg PO, after treatment stopped Day 78, study to Day 117): ~70%
Effect on tumor growth (tumor volume) ([1]; Group 2: 75 mg/kg IP in PBS, TIW, Study Days 1-8): did not inhibit tumor growth
Effect on tumor growth (tumor volume) ([1]; Group 3: 75 mg/kg PO in 0.5% MC, TIW, Day 8, compared with Group 2): tumor growth was reduced
Effect on tumor growth (tumor volume) ([1]; Group 4: 100 mg/kg PO, TIW, Days 1-8, compared to Group 1): Inhibition of tumor growth
Effect on tumor growth (tumor volume) ([1]; Group 5: 125 mg/kg PO, TIW, Days 1-8): greatest suppression of tumor growth
Effect on tumor growth (tumor volume) ([1]; Group 6: 150 mg/kg PO, TIW, Days 1-8): greatest suppression of tumor growth
Treatment toxicity [2]: stopped on Day 14 due to toxicity
AUC % Extrap [3, 6]: 5.00 ± 4.92 %
Cl_F [3, 6]: 6.14 ± 2.32 L/h/kg
Vz_F [3, 6]: 15.12 ± 3.53 L/kg
AUC % Extrap [3, 7]: 1.42 ± 0.79%
Cl_F [3, 7]: 6.63 ± 2.82 L/h/kg
Vz_F [3, 7]: 33.74 ± 16.37 L/kg
AUC % Extrap [3, 8]: 0.47^a %
Cl_F [3, 8]: 4.17^a L/hr/kg
Vz_F [3, 8]: 17.51^a L/kg
AUC % Extrap [3, 9]: 6.76 ± 5.82 %
Cl_F [3, 9]: 22.85 ± 5.76 L/h/kg
Vz_F [3, 9]: 139.42 ± 13.22 L/kg
AUC % Extrap [3, 10]: 0.69 ± 0.34 %
Vz_F [3, 10]: 27.15 ± 11.86 L/kg
% AUC0-last test vs reference ([3]; Group 5 (24 mg/kg 2HCl ORA-plus) vs Group 6 (48 mg/kg 2HCl ORA-plus)): 53.01%
% AUC0-last test vs reference ([3]; Group 5 (24 mg/kg 2HCl ORA-plus) vs Group 12 (24 mg/kg 2HCl SyrSpend)): 84.12%
% AUC0-last test vs reference ([3]; Group 6 (48 mg/kg 2HCl ORA-plus) vs Group 13 (48 mg/kg 2HCl SyrSpend)): 298.14%
% AUC0-last test vs reference ([3]; Group 6 (48 mg/kg 2HCl ORA-plus) vs Group 14 (60 mg/kg 2HCl SyrSpend)): 62.79%
% AUC0-last test vs reference ([3]; Group 12 (24 mg/kg 2HCl SyrSpend) vs Group 13 (48 mg/kg 2HCl SyrSpend)): 187.87%
% AUC0-last test vs reference ([3]; Group 12 (24 mg/kg 2HCl SyrSpend) vs Group 14 (60 mg/kg 2HCl SyrSpend)): 39.57%
% AUC0-last test vs reference ([3]; Group 13 (48 mg/kg 2HCl SyrSpend) vs Group 14 (60 mg/kg 2HCl SyrSpend)): 21.06%
AUC(0-t) [3, 11]: 4200 ± 1120 ng·h/mL
Cmax [3, 11]: 1070 ± 221 ng/mL
Tmax [3, 11]: 2.4 ± 0.89 h
AUC(0-inf) [3, 12]: 4250 ± 1230 ng·h/mL
half-life [3, 12]: 1.8 ± 0.47 h
AUC(0-t) [3, 13]: 5000 ± 1260 ng·h/mL
Cmax [3, 13]: 1030 ± 151 ng/mL
Tmax [3, 13]: 3.2 ± 1.1 h
AUC(0-inf) [3, 14]: 5750 ng·h/mL
half-life [3, 14]: 2.91 h
AUC(0-inf) [3, 15]: 8040 ± 2410 ng·h/mL
AUC(0-t) [3, 15]: 7930 ± 2380 ng·h/mL
Cmax [3, 15]: 1120 ± 429 ng/mL
Tmax [3, 15]: 2.8 ± 1.1 h
half-life [3, 15]: 3.5 ± 0.53 h
AUC(0-t) [3, 16]: 2660 ± 946 ng·h/mL
Cmax [3, 16]: 1990 ± 787 ng/mL
Tmax [3, 16]: 0.7 ± 0.27 h
AUC(0-inf) [3, 17]: 2170 ± 548 ng·h/mL
half-life [3, 17]: 4.42 ± 1.52 h
AUC(0-t) [3, 18]: 12600 ± 5100 ng·h/mL
Cmax [3, 18]: 1710 ± 314 ng/mL
Tmax [3, 18]: 2.4 ± 2.07 h
AUC(0-inf) [3, 19]: 11500 ± 4440 ng·h/mL
half-life [3, 19]: 3.2 ± 0.4 h
Time point up to which all animals had quantifiable plasma levels ([3]; single oral dose, ORA-Plus or SyrSpend, data not shown): ≥ 8 h
Body weight change ([4]; 100 mg/kg PO, during and after treatment (to Day 117)): minimal effects on body weight
Body weight change ([4]; Group 2: 75 mg/kg IP, Day 5 and Day 8): greater decrease in body weight
MTD at 103 days (in vivo): 75 mg/kg
MTD [5]: 24 mg/kg
